Experimental data taken from ChEMBL document CHEMBL4673345 (J Med Chem, 2020).
Activity calls are given as the source filed them. No cut-off for these calls is given here.

Assays:
[1] = Inhibition of ABCB1 in multidrug-resistant human SW620/Ad300 cells assessed as increase in reversal of resistance to paclitaxel-induced cytotoxicity by measuring paclitaxel IC50 pre-incubated for 4 hrs followed by paclitaxel addition and measured after 72 hrs by MTT assay (reference value: 4.23 +/- 0.6 uM)
[2] = Toxicity in human SW-620/Ad300 cells assessed as cell viability at 20 uM incubated for 72 hrs by MTT assay; type: cell-based; conditions: read-out: Activity
SW-620 [3] = test: Effect on intracellular PTX concentration in human SW620 cells at 4 uM pre-incubated for 4 hrs followed by PTX addition and measured after 2 hrs by liquid scintillation counting analysis; type: functional, cell-based; conditions: time 6.0 hrs
SW-620 [4] = conditions: Homo sapiens, dose 6.0 mg/kg/day, time 21.0 day
[5] = Reversal of resistance to paclitaxel-induced cytotoxicity in human KB-3-1 cells assessed as reduction in paclitaxel IC50 at 20 uM pre-incubated for 4 hrs followed by paclitaxel addition and measured after 72 hrs by MTT assay; type: functional; conditions: time 76 hrs
Cytochrome P450 3A4 = Cytochrome P450 3A4 (Homo sapiens, UniProt P08684); test: Activation of CYP3A4 in human liver microsomes at 30 uM incubated for 10 mins in presence of CYP3A4 substrate/NADP+ by fluorescence based assay; type: ADME
SW-620 [6] = test: Antitumor activity against human SW620/Ad300 cells xenografted in BALB/c mouse assessed as reduction in tumor volume at 20 mg/kg/day, ig for 21 days; type: functional, organism-based; conditions: time 21.0 day
[7] = Reversal of resistance to paclitaxel-induced cytotoxicity in HEK293 cells assessed as reduction in paclitaxel IC50 at 10 uM pre-incubated for 4 hrs followed by paclitaxel addition and measured after 72 hrs by MTT assay; type: functional, Homo sapiens; conditions: time 76 hrs
SW-620 [8] = test: Potentiation of PTX-induced antitumor activity against human SW620/Ad300 cells xenografted in BALB/c mouse assessed as reduction in tumor volume at 20 mg/kg/day, ig for 21 days relative to PTX alone; type: functional, organism-based; conditions: time 21.0 day
[9] = Toxicity in BALB/c mouse xenografted with human SW620/Ad300 cells assessed as induction of mortality at 20 mg/kg/day, ig; type: organism-based; conditions: in vivo, po
SW-620 [10] = test: Antitumor activity against human SW620/Ad300 cells xenografted in BALB/c mouse assessed as induction of tumor apoptosis by measuring nuclear pyknosis at 20 mg/kg/day, ig for 21 days by TUNEL assay; type: functional, organism-based; conditions: time 21.0 day
SW-620 [11] = test: Potentiation of PTX-induced antitumor activity against human SW620/Ad300 cells xenografted in BALB/c mouse assessed as reduction in tumor weight at 20 mg/kg/day, ig for 21 days relative to PTX alone; type: functional, organism-based; conditions: time 21.0 day
[12] = Reversal of resistance to paclitaxel-induced cytotoxicity against human SW620 cells by measuring reduction in paclitaxel IC50 at 10 uM pre-incubated for 4 hrs followed by paclitaxel addition and measured after 72 hrs by MTT assay; type: functional, SW-620; conditions: time 76 hrs
CYP3A4 = CYP3A4 (Homo sapiens, UniProt P08684); test: Activation of CYP3A4 in human liver microsomes at 20 uM after 30 mins in presence of CYP3A4 substrate/NADP+ by fluorescence based assay; type: ADME; conditions: read-out: FC
[13] = molecular target: T1, ATP-dependent translocase ABCB1 (Homo sapiens, UniProt P08183); test: Stabilization of ABCB1 in human SW620/Ad300 cells assessed as inhibition of high temperature-induced ABCB1 protein degradation at 200 uM incubated for 30 mins by cellular thermal shift assay; type: cell-based; conditions: sw-620, 0.5 h
SW-620 [14] = test: Inhibition of [3H]PTX efflux in human SW620 cells at 20 uM pre-incubated for 4 hrs followed by PTX addition and measured after 2 hrs by liquid scintillation counting analysis; type: functional, cell-based; conditions: time 6.0 hrs
[15] = Toxicity in BALB/c mouse xenografted with human SW620/Ad300 cells assessed as effect on body weight changes at 20 mg/kg/day, ig; type: organism-based; conditions: in vivo, po
SW-620 [16] = test: Effect on ABCB1 protein expression in human SW620/Ad300 cells at 20 uM incubated for 72 hrs by Western blotting analysis; type: functional, cell-based
SW-620 [17] = test: Effect on ABCB1 subcellular localization in human SW620/Ad300 cells at 20 uM incubated for 72 hrs by Western blotting analysis; type: functional, cell-based
[18] = Reversal of resistance to paclitaxel-induced cytotoxicity in HEK293 cells assessed as reduction in paclitaxel IC50 at 20 uM pre-incubated for 4 hrs followed by paclitaxel addition and measured after 72 hrs by MTT assay; type: functional, Homo sapiens; conditions: time 76 hrs
[19] = Reversal of resistance to paclitaxel-induced cytotoxicity in human KB-3-1 cells assessed as reduction in paclitaxel IC50 at 10 uM pre-incubated for 4 hrs followed by paclitaxel addition and measured after 72 hrs by MTT assay; type: functional; conditions: time 76 hrs
[20] = Toxicity in BALB/c mouse xenografted with human SW620/Ad300 cells assessed as induction of liver injury at 20 mg/kg/day, ig by H and E staining based assay; type: organism-based; conditions: in vivo, po
[21] = molecular target: Multidrug resistance-associated protein 1 (Homo sapiens, UniProt P33527); test: Stabilization of ABCC1 in human SW620/Ad300 cells assessed as inhibition of high temperature-induced ABCB1 protein degradation at 200 uM incubated for 30 mins by cellular thermal shift assay; type: cell-based; conditions: sw-620, 0.5 h
[22] = Reversal of resistance to paclitaxel-induced cytotoxicity against human SW620 cells by measuring reduction in paclitaxel IC50 at 20 uM pre-incubated for 4 hrs followed by paclitaxel addition and measured after 72 hrs by MTT assay; type: functional, SW-620; conditions: time 76 hrs
SW-620 [23] = test: Effect on intracellular PTX concentration in human SW620 cells at 20 uM pre-incubated for 4 hrs followed by PTX addition and measured after 2 hrs by liquid scintillation counting analysis; type: functional, cell-based; conditions: time 6.0 hrs
[24] = molecular target: T1, ATP-dependent translocase ABCB1; test: Stimulation of ABCB1 ATPase activity (unknown origin) assessed as increase in inorganic phosphate release at 5 to 45 uM incubated for 20 mins in presence of Mg-ATP by spectrophotometry; conditions: dose 5-45 µM
SW-620 [25] = test: Antitumor activity against human SW620/Ad300 cells xenografted in BALB/c mouse assessed as induction of tumor death by measuring nuclear pyknosis at 20 mg/kg/day, ig for 21 days by H and E staining based assay; type: functional, organism-based; conditions: time 21.0 day

T1 sequence (P08183 whole entry): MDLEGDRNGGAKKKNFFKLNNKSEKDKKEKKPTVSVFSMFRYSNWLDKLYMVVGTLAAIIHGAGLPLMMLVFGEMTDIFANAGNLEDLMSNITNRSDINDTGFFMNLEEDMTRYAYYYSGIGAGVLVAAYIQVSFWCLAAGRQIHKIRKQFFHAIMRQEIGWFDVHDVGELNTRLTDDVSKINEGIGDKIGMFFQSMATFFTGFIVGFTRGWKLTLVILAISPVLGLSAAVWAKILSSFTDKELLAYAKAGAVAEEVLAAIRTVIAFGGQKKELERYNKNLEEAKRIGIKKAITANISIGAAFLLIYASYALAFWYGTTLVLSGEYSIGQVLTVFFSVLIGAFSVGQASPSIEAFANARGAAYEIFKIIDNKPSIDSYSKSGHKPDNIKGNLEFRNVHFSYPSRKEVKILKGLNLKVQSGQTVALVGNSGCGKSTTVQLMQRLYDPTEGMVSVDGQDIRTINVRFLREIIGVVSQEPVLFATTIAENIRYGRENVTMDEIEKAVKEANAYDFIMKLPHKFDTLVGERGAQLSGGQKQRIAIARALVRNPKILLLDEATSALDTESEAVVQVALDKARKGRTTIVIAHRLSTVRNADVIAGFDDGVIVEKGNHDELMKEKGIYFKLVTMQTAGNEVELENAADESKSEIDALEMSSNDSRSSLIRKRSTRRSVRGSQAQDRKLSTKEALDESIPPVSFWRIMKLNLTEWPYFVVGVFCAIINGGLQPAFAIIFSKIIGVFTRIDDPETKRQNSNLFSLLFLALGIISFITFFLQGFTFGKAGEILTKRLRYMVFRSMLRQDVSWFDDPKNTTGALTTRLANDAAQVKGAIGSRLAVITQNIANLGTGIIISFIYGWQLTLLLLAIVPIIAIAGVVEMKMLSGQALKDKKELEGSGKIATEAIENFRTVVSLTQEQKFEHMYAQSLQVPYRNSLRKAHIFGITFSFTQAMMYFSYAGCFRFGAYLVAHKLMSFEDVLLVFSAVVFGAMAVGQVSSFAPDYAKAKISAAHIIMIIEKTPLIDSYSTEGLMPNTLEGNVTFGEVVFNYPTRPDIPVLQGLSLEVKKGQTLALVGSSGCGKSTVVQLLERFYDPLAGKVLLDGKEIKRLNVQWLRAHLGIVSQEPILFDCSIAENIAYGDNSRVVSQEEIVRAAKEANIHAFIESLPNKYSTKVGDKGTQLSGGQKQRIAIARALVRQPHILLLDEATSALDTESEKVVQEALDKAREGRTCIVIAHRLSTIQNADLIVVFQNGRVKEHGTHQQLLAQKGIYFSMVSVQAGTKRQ
Chain of Cytochrome P450 3A4 (P08684 whole entry): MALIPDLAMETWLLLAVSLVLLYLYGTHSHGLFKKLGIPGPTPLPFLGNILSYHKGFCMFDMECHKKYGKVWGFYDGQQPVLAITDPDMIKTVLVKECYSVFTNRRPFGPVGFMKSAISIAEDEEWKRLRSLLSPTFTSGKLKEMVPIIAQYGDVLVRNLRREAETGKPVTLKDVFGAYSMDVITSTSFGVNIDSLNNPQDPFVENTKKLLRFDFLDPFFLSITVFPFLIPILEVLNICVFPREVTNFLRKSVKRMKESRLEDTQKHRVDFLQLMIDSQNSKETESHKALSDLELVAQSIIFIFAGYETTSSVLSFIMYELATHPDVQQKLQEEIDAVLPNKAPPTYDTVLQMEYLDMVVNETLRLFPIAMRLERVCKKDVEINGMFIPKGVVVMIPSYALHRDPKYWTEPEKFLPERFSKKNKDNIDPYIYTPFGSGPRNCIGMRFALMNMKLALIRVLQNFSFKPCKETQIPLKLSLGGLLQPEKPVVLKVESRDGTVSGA
Chain of CYP3A4 (P08684 whole entry): as above
Chain of Multidrug resistance-associated protein 1 (P33527 whole entry): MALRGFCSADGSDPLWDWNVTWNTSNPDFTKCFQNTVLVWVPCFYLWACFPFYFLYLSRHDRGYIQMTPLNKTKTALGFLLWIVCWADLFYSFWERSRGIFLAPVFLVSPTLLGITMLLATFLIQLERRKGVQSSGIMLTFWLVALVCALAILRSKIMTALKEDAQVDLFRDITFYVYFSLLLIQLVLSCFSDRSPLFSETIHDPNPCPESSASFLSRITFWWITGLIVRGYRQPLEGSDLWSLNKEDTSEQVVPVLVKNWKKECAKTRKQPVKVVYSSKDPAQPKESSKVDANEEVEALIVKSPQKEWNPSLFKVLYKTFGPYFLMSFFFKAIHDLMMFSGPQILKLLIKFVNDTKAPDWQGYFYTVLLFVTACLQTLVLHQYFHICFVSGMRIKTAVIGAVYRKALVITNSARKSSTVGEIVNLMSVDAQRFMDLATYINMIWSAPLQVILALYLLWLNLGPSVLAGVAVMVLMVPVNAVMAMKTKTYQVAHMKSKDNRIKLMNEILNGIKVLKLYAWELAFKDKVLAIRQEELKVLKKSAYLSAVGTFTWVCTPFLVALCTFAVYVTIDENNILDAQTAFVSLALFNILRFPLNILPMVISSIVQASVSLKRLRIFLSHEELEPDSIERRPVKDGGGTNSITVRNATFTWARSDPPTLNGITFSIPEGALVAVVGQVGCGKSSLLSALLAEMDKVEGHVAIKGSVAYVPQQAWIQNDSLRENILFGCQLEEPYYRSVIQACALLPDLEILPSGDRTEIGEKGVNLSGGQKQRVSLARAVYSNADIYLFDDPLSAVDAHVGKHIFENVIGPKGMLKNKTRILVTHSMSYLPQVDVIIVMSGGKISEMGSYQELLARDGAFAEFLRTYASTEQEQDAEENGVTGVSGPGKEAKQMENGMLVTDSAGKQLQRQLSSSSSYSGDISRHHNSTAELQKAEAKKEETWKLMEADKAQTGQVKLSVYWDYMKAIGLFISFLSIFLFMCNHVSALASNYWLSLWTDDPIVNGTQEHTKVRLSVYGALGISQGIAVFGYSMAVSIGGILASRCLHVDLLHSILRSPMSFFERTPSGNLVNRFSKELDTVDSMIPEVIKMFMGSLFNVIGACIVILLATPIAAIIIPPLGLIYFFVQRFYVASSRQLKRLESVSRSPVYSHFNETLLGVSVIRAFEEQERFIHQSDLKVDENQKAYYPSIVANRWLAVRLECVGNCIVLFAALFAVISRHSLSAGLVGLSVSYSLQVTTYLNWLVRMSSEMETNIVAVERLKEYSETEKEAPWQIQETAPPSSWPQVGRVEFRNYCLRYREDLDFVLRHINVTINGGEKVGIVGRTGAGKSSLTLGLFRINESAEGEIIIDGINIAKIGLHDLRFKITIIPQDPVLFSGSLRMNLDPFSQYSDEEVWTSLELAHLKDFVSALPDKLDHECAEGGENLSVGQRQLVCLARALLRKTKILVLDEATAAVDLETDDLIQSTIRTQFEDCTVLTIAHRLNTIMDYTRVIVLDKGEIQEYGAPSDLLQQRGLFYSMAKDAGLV

Work on `Cc1cc(Nc2ccc(O)c(Cl)c2)n2nc(SCc3nc4ccccc4[nH]3)nc2n1` yielded an IC50 [1] of 3.22 µM.
`COc1ccc(CSc2nc3nc(C)cc(Nc4ccc(F)cc4)n3n2)cc1` showed an IC50 [1] of 1.93 µM.
`Cc1cc(Nc2c(F)cccc2F)n2nc(SCc3nc4ccccc4[nH]3)nc2n1` gave an IC50 [1] of 0.79 µM.
For `CCc1cc(Nc2ccc(F)cc2)n2nc(SCc3ccccc3)nc2n1`, the IC50 [1] was 1.61 µM.
`Cc1ccc(CSc2nc3nc(C)cc(Nc4ccc(F)cc4)n3n2)cc1` gave an IC50 [1] of 2.04 µM.
`Cc1cc(Nc2ccc(F)cc2)n2ncnc2n1` showed a viability at 72 h, 20 µM [2] of 93.2%.
For `COc1ccc(CCN(C)CCCC(C#N)(c2ccc(OC)c(OC)c2)C(C)C)cc1OC` (stereo not given), the Activity (SW-620 [3]) was “inactive” and the TGI (SW-620 [4]) was “Active”.
With `Cc1ccccc1Nc1nc(SCc2cn(Cc3ccc(Cl)cc3)nn2)nc(-c2ccccc2)c1C#N` the IC50 [1] was 36 µM.
Molecule `Cc1cc(Nc2ccccc2)n2nc(SCc3nc4ccccc4[nH]3)nc2n1` has an IC50 [1] of 0.046 µM.
`Cc1cc(Nc2cc(F)c(F)cc2F)n2nc(SCc3nc4ccccc4[nH]3)nc2n1` showed an IC50 [1] of 0.26 µM.
For `Cc1cc(Nc2ccc(F)cc2)n2nc(SCc3nc4ccccc4[nH]3)nc2n1`, the “fold change (FC)” value [5] was 1.52, the Activity (Cytochrome P450 3A4) was “Active” and the TGI (SW-620 [6]) was “inactive”. For the same molecule, the “fold change (FC)” value [7] was 1.3, the TGI (SW-620 [8]) was “Active” and the Activity [9] was “Non-Toxic”. For the same molecule, the Activity (SW-620 [10]) was “Active”, the TGI (SW-620 [11]) was “Active” and the “fold change (FC)” value [12] was 1.05. For the same molecule, the fold induction at 0.5 h, 20 µM (CYP3A4) was 1.06, the Activity [13] was “Active” and the inhibition (SW-620 [14]) was “Active”. For the same molecule, the Activity [15] was “Non-Toxic”, the Activity (SW-620 [16]) was “inactive” and the Activity (SW-620 [17]) was “inactive”. The “fold change (FC)” value [18] was 1.29, the “fold change (FC)” value [19] was 1.5 and the Activity [20] was “Non-Toxic”. The Activity [21] was “Not Active”, the “fold change (FC)” value [22] was 1.5 and the Activity (SW-620 [23]) was “inactive”. The “fold change (FC)” value [24] was 2.5 and the Activity (SW-620 [25]) was “Active”.
In the case of `N#Cc1c(Nc2cccc(Cl)c2)nc(SCC(=O)NC(=O)Nc2ccccn2)nc1-c1ccccc1`, the IC50 [1] is reported as 5 µM.
